Test results taken from patent US20240251801A1, “COMPOSITIONS AND METHODS FOR IMPROVING PLANT HEALTH AND CONTROLLING PLANT DISEASE” (AgBiome, Inc., priority 2021, published 2024).

What was measured:
Assay type in all cases: in vivo
Podosphaera xanthii [1] = test: Squash leaf disc assay, control of powdery mildew on cucurbits; details: squash leaf discs, bacterial suspension 200 μL, tebuconazole 10 ppm
Experimental: (§1) For detached-leaf assays performed in the following examples, bacterial strains stored in a freezer (−80° C.) were each streaked onto Luria Bertani (LB) agar (25 g LB broth and 15 g agar per liter of deionized water) in an 8.5-cm diameter plastic plate. A single colony from the plate was picked and placed in 50 ml of either LB liquid broth or a liquid broth consisting of NaCl (5 g), tryptone (10 g), nutrient broth (8 g), CaCl2 (0.14 mM), MgCl2·6H2O (0.2 mM), and MnCl2·4H2O (0.01 mM) per liter of deionized water in a 250-ml flask. Calcium chloride (CaCl2), MgCl2, and MnCl2 were filtered sterilized using 0.22 μm vacuum filter and were then added to NaCl, tryptone, nutrient broth (which were autoclaved together). Cultures were harvested after 48 h by pelleting cells and re-suspending to original volume in sterile H2O. Colony forming units (CFU/mL) were determined using standard dilution plate count method, and plates were inspected for signs of contamination. […]
Leaf disks were inoculated on the treated leaf surface by spraying a conidial suspension (1×10^6 conidia/ml of sterile distilled water) of P. xanthii (an isolate obtained from Dr. McGrath laboratory, Cornell University). […] The number of powdery mildew colonies were also recorded for each treatment. […] Data was analyzed in SAS JMP version 14.0.

Podosphaera xanthii [2] = test: Squash leaf disc assay with wettable powder formulations, control of powdery mildew; details: squash leaf discs, 150 μL, tebuconazole 10 ppm as control
Experimental: For the tray drying method, 829 grams of cell paste obtained from a liquid culture of ATP15329 was mixed with 18.24 g of glycerol and 72.95 g of microcel E using a food processor. Half of the cell paste was dried at 40° C. to a water activity of less than 0.30, at which time it contained 3.53E11 CFU/g. The other half was dried at 25° C. and 50% RH to a water activity of less than 0.6, at which time it contained 4.75E11 CFU/g. The dried powder formulation was stored in heat sealed mylar pouches at 4° C.
For the spray drying method, 200 grams of cell paste obtained from a liquid culture of ATP15329 was mixed with 22 g of skim milk powder using an emulsion blender. This material was spray dried at outlet temperature of 70° C., at which time it contained 7.86E10 CFU/g. The dried powder formulation was stored in heat sealed mylar pouches at 4° C.
This evaluation followed the protocol used in Example 3. Briefly, leaf disks were each sprayed with 150 μL of different formulations of the bacterial strain AIP015329, tebuconazole 10 ppm (fungicide control) on the adaxial surface 24 hours before inoculation with the fungal pathogen. After treatment, leaf disks were incubated in the dark for 24 hours at 23° C.
Leaf disks were inoculated on the treated leaf surface by spraying a conidial suspension (1×10^6 conidia/ml of sterile distilled water) of P. xanthii. Inoculated and non-inoculated/not treated controls were added. Treatments were placed into sealed clear plastic boxes and incubated for six days at 25° C. with a relative humidity of 80% and a 12 h photoperiod. Each treatment was rated on a disease severity scale from 0 to 4, with 0 being no symptoms and 4 being greater than 50% of the leaf disk covered with colonies. The number of powdery mildew colonies were also recorded for each treatment. This experiment was run once, with each treatment replicated three times. Data was analyzed in SAS JMP version 14.0.

Mycosphaerella fijiensis = test: Grand Nain (Musa) leaf piece assay, control of black sigatoka; details: Grand Nain leaf pieces, strain 1×10^8 CFU/ml, mancozeb 10 ppm
Experimental: as §1, with “contamination. Sterile distilled water was added to achieve a final concentration needed in detached-leaf or growth chamber strain evaluations.” for “contamination.”
Data recorded were the most progressed stage on inoculated leaves, 3 to 4 weeks after inoculation (Stover 1986). Data were analyzed using analysis of variance (ANOVA) in PROC GLM of SAS (version 9.4; SAS Institute Inc., Cary, NC) and significant differences (P<0.05) were observed among treatments.

[3] = system: Colletotrichum sublineolum; test: Detached sorghum leaf piece assay, control of anthracnose; details: sorghum leaf pieces, strain 1×10^8 CFU/ml, pyraclostrobin 10 ppm
Experimental: as §1, with “contamination. Sterile distilled water was added to achieve a final concentration needed in detached-leaf or growth chamber strain evaluations.” for “contamination.”
Seven days post inoculation, the leaf pieces were assessed for anthracnose severity on a scale of 0-4 according to Prom et al., 2016 (Plant Path J. 15(1): 11-16), with few modifications. […] Data was analyzed using analysis of variance (ANOVA) in JMP® (version 14.0.0; SAS Institute Inc., Cary, NC). […]

Q: Which results are given for `CC(C)(C)C(O)(CCc1ccc(Cl)cc1)Cn1cncn1` (stereo not drawn) [Tebuconazole, tebuconazole]?
A: Disease Control (%) Confirmation (Podosphaera xanthii [1]; confirmation): 75.0 (a) %; Disease Control (%) Primary Screen (Podosphaera xanthii [1]; treated 24 h before inoculation, six days incubation): 87.5 (a) %; Disease Control (%) Spray dry (Podosphaera xanthii [2]; spray dried formulation of the strain): 96.0 (a) %; Disease Control (%) Tray dry Dried at 25° C. (Podosphaera xanthii [2]; tray dried formulation dried at 25° C.): 96.0 (a) %; Disease Control (%) Tray dry Dried at 40° C. (Podosphaera xanthii [2]; tray dried formulation dried at 40° C.): 96.0 (a) %

Q: Which results are given for mancozeb?
A: Disease Control (%) Primary Screen (Mycosphaerella fijiensis; 3 to 4 weeks after inoculation): 92.3 (a) %; Disease Control (%) Confirmation (Mycosphaerella fijiensis; confirmation): 81.0 (a) %

Q: What does the source list for `COC(=O)N(OC)c1ccccc1COc1ccn(-c2ccc(Cl)cc2)n1` [Pyraclostrobin]?
A: Disease Control (%) Confirmation ([3]; confirmation screen with freshly grown culture): 79.2 (a) %; Disease Control (%) Primary Screen ([3]; treated 24 h before inoculation, rated 7 days post inoculation): 95.2 (a) %
